{
  "source": "patent US11229649B2",
  "about": "“Methods for treating cryptosporidiosis using triazolopyridazines” (University of Vermont and State Agricultural College, priority 2015, dated 2022)",
  "key": {"[1]": {"tested_on": "C. parvum (Iowa strain)", "experiment": "NOD SCID gamma immunocompromised mouse model of cryptosporidiosis (fecal oocyst shedding by qPCR)", "type": "in vivo, Cryptosporidium parvum", "excerpt": "A NOD SCID gamma mouse model was used for in vivo testing of confirmed screening hits. NOD SCID gamma mice (Jackson Laboratories) develop Cryptosporidium parvum infection following oral gavage that is characterized by persistent infection of the small intestinal and cecal epithelium. The mice remain asymptomatic and gain weight normally. Infection is established by oral gavage of 1×10^4 C. parvum (Iowa strain) oocysts on day −6. Fecal parasite shedding is quantified by quantitative PCR of genomic DNA, using a standard curve generated by spiking oocysts into fecal samples from uninfected mice. Fecal oocyst shedding reliably becomes detectable at day 1 (1 week after infection). Experimental compounds are administered by oral gavage of 30 mg/kg in DMSO:1% HPMC (5:95) twice daily for 4 days. Parasite shedding is compared to that for infected mice treated with drug carrier alone (i.e. DMSO:1% HPMC (5:95)).\nResults for treatment of C. parvum infected NOD SCID gamma mice with DMSO or selected MMV Malaria Box screening hits with confirmed in vitro activity given by oral gavage of 30 mg/kg twice daily on days 1-4 can be seen in FIG. 2. Cryptosporidium parvum infection was established on day −6. Parasite shedding is detectable in all animals on day 1. […] Other compounds and DMSO had no effect. Data shown are the mean and SE for parasites detected/mg of feces (n=4 animals per treatment group).\nA repeat of the experiment presented in FIG. 2 showing efficacy of MMV665917 in the NOD SCID gamma mouse model is presented in FIG. 5. […] For this experiment, NOD SCID gamma mice were infected on day −6 by oral gavage of C. parvum oocysts, shedding was detected at day 0 prior to compound dosing, compounds or vehicle were dosed on days 0-6 as indicated, and mice were maintained for one week following cessation of treatment. Data shown are the mean and SE for the number of oocysts/mg stool detected by real time PCR of the feces on the indicated day (four mice per experimental group)."}, "[2]": {"tested_on": "C. parvum", "experiment": "C. parvum growth inhibition in HCT-8 cells, in vitro dose response (immunofluorescence)", "type": "cell-based", "conditions": "Cryptosporidium parvum; C. parvum in HCT-8 cells; plate control of the screen; read-out: 90% inhibitory concentration (IC90)", "description": "Materials and Methods: Cell culture and Cryptosporidium infections: The high throughput screen for C. parvum growth inhibitors was carried out using human ileocecal adenocarcinoma (HCT-8) cells (ATCC) maintained in RPMI 1640 medium with HEPES, sodium pyruvate (1 mM) and L-glutamate with 10% horse serum (ATCC) supplemented with 120 U/mL penicillin and 120 μg/mL streptomycin. HCT-8 cells were grown to confluence in 384-well, tissue culture-treated, black-walled, clear-bottom microwell plates (BD Falcon). […]\nInfected monolayers were washed three times with PBS containing 111 mM D-galactose using an EL406 automated plate washer (Biotek), fixed with 4% paraformaldehyde, permeabilized with 0.25% Triton X-100 in PBS, and then blocked with 4% bovine serum albumin (BSA). Vegetative forms of C. parvum were detected by the addition of biotinylated Vicia villosa lectin (VVL; Vector Laboratories) and streptavidin-conjugated Alexa Fluor 568 (Invitrogen) diluted in PBS with 1% BSA and 0.1% Tween 20. […]\nImageJ outputs were imported into Microsoft Excel for data organization and analysis. Percent inhibition was calculated (equation 1) for each well in order to normalize the data and to facilitate the combination of data from individual biological replicates. […]"}, "[3]": {"tested_on": "C. parvum Iowa strain", "experiment": "Static or cidal assay: C. parvum persistence in HCT-8 cells at multiples of the EC90", "type": "cell-based, Cryptosporidium parvum", "conditions": "compound added 24 hours after infection of HCT-8 cells (FIG. 7)", "description": "HCT-8 cell monolayers are infected and parasites are allowed to replicate for 24 hours before addition of experimental drug compounds. Parasite numbers are then measured at different time points following compound addition by epifluorescence microscopy, using the same method as used in FIG. 1.\nTo assess if MMV665917 is cidal or static for C. parvum and determine the concentration of compound required to maximize the rate of parasite elimination, C. parvum persistence in HCT-8 colonic carcinoma cells was assayed in the presence of increasing multiples of the in vitro EC90. Briefly, the assay infects HCT-8 intestinal epithelial cells with the C. parvum Iowa strain as in Example 1. Parasites are then allowed to develop for 24 hours prior to the addition of the indicated concentration of experimental compounds (time 0 in the graphs above). At the indicated times following compound addition, samples are then fixed, the host cells and parasites are fluorescently stained, and parasites are enumerated by automated epifluorescence microscopy and image process as described in Example 1."}, "[4]": {"tested_on": "Cryptosporidium", "conditions": "cited from earlier work"}, "[5]": {"experiment": "Pharmacokinetics in male Sprague Dawley rats (IV and oral)", "type": "in vivo, rat", "description": "The pharmacokinetics of MMV665917 were studied in overnight-fasted male Sprague Dawley rats that had access to water ad libitum throughout the pre- and post-dose sampling period, and access to food was re-instated 4 h (hour) post-dose. MMV665917 was administered intravenously as a 10 min (minute) constant rate infusion via an indwelling jugular vein cannula (1 mL per rat, n=2 rats) and orally by gavage (10 mL/kg per rat, n=2 rats). Samples of arterial blood and total urine were collected up to 24 h post-dose. Arterial blood was collected directly into borosilicate vials (at 4° C.) containing heparin, Complete® (a protease inhibitor cocktail), potassium fluoride, and EDTA to minimise potential for ex vivo degradation of test compound in blood/plasma samples. Once collected, blood samples were centrifuged, supernatant plasma was removed and stored frozen (−20° C.) until analysis by LC-MS. IV Formulation. MMV665917 was dissolved in propylene glycol and ethanol before Milli-Q water was added producing a clear solution. The formulation was filtered through a 0.22 μm syringe filter prior to dosing, and the measured concentration of compound the filtered solution was 0.24 mg/mL. Oral Formulation. MMV665917 was wet milled in HPMC-SV in an agate mortar and sonicated for 10 minutes producing a uniform suspension. The bulk formulation was mixed by inverting the tubes prior to drawing each dosing volume and the average measured concentration of compound in aliquots (n=3) of formulation was 0.32 mg/mL (range 0.28-0.37 mg/mL)."}, "[6]": {"experiment": "In vitro plasma/blood stability and whole blood-to-plasma ratio", "type": "in vitro ADME, rat", "conditions": "37° C.", "description": "In Vitro Determination of Plasma/Blood Stability and Whole Blood-to-Plasma Ratio. MMV665917 was spiked into fresh heparinized whole blood (collected from male Sprague Dawley rats) or plasma of a corresponding volume (which acted as a matrix control) to an initial nominal concentration of 500 ng/mL. As a whole blood assay for the compound was not available, the concentration of MMV665917 in the spiked plasma (i.e. matrix control) was used as a surrogate measurement of the spiked whole blood concentration. Whole blood samples were incubated at 37° C. for up to 240 min after which plasma and erythrocytes were separated by centrifugation prior to determination of plasma concentrations by LC-MS. Whole blood-to-plasma partitioning ratios (B/P) were obtained by dividing the measured concentration in the plasma control sample by the concentration measured in plasma following centrifugation of whole blood."}, "[7]": {"experiment": "Mouse plasma concentration, single oral dose and simulated BID dosing", "type": "in vivo", "description": "Compounds were dosed as indicated either orally by oral gavage or intravenously, and serum samples were collected at the indicated time points. The MMV665917 plasma concentration was measured by LC-MS/MS.\n(§1) Mouse serum concentrations measured from a single 55 mg/kg oral dose of MMV665917 (see above figure) were used to simulate the mouse serum concentrations following BID dosing of either 30 mg/kg or 60 mg/kg. The measured calf plasma concentration following a single 22 mg/kg oral dose is also shown. Note that a minimum concentration of EC90 was required for parasite elimination in vitro, and the rate of parasite elimination in vitro was maximized at 3× the EC90 concentration.\nas §1, with “The actual and simulated mouse and calf plasma concentrations for MMV665917, correlated to the EC90 and 3×EC90 concentrations are shown in FIG. 9. Mouse” for “Mouse”, “(FIG. 9)” for “(see above figure)”"}, "[8]": {"conditions": "30 mg/kg twice daily oral gavage, days 1-4 (FIG. 2)"}},
  "note": "“Also recorded” adds a separate entry of the source. Where two headings read alike, the source gives them in different places.",
  "data": [
    {"molecule": "NC[C@@H]1O[C@H](O[C@H]2[C@@H](O)[C@H](O[C@@H]3[C@@H](O)[C@H](N)C[C@H](N)[C@H]3O[C@H]3O[C@H](CO)[C@@H](O)[C@H](O)[C@H]3N)O[C@@H]2CO)[C@H](N)[C@@H](O)[C@@H]1O", "note": "[paromomycin, reference compound]", "values": [
      {"measurement": "relapse after treatment cessation", "setting": "[1]; 1000 mg/kg twice daily, positive control (FIG. 5)", "value": "relapsed quickly after treatment cessation"}
    ]},
    {"molecule": "CC(=O)Oc1ccccc1C(=O)Nc1ncc([N+](=O)[O-])s1", "note": "[nitazoxanide]", "values": [
      {"measurement": "IC90", "setting": "[2]", "value": 6.6, "unit": "µM"},
      {"measurement": "activity in the NOD SCID gamma mouse model", "setting": "[1]; dose not stated", "value": "lacks activity"},
      {"measurement": "static or cidal for C. parvum", "setting": "[3]", "value": "static"},
      {"measurement": "efficacy in cryptosporidiosis", "setting": "[4]; AIDS patients / immunocompromised people", "value": "lacks activity"},
      {"measurement": "efficacy in cryptosporidiosis", "setting": "[4]; AIDS patients / immunocompromised people, listed as Nitazoxanide", "value": "no more effective than placebo"},
      {"measurement": "efficacy in cryptosporidiosis", "setting": "[4]; children", "value": "partial efficacy"}
    ]},
    {"molecule": "O=C(Nc1ccc(Cl)cc1)N1CCN(c2ccc3nncn3n2)CC1", "note": "[MMV665917]", "values": [
      {"measurement": "efficacy across the two experiments", "setting": "[1]; 30 mg/kg BID (effective in FIG. 2, ineffective in FIG. 5)", "value": "variable efficacy; also recorded: variably efficacious"},
      {"measurement": "parasite shedding (oocysts/mg feces)", "setting": "[1]; [8]", "value": "significantly reduced parasite shedding"},
      {"measurement": "persistence of reduced parasite shedding following cessation of treatment", "setting": "[1]; [8]", "value": "> 3", "unit": "days"},
      {"measurement": "efficacy on C. parvum shedding, repeat experiment", "setting": "[1]; 30 mg/kg twice daily oral gavage, seven days (FIG. 5)", "value": "inactive; also recorded: not effective"},
      {"measurement": "efficacy on C. parvum shedding, repeat experiment", "setting": "[1]; 60 mg/kg twice daily oral gavage, seven days (FIG. 5)", "value": "eliminated detection of C. parvum shedding in the feces; also recorded: cured; also recorded: curative"},
      {"measurement": "relapse over the week following cessation of treatment", "setting": "[1]; 60 mg/kg twice daily, seven days (FIG. 5)", "value": "no relapse was observed"},
      {"measurement": "static or cidal for C. parvum", "setting": "[3]", "value": "cidal"},
      {"measurement": "half-life", "setting": "[5]; male, Sprague Dawley, rat, plasma, 0.24 mg per rat, rats, IV administration, read-out: apparent terminal half-life", "value": "3 to 4", "unit": "h"},
      {"measurement": "bioavailability", "setting": "[5]; male, Sprague Dawley, rat, plasma, po, 3.2 mg/kg, rats, oral administration, read-out: apparent oral bioavailability", "value": "24 to 43", "unit": "%"},
      {"measurement": "haemolysis in plasma", "setting": "[5]; rat, in vivo, iv", "value": "Evidence of haemolysis was observed"},
      {"measurement": "apparent volume of distribution", "setting": "[5]; rats, IV administration", "value": "moderate"},
      {"measurement": "in vivo clearance", "setting": "[5]; rats, IV administration", "value": "low"},
      {"measurement": "time plasma concentrations remained above the analytical LLQ", "setting": "[5]; rats, IV administration", "value": 16, "unit": "h"},
      {"measurement": "fraction of the dose recovered in urine as intact compound", "setting": "[5]; rats, IV, 24 h sampling period", "value": "approximately 25%"},
      {"measurement": "adverse reactions or compound related side effects", "setting": "[5]; rats, following IV or oral administration", "value": "No adverse reactions or compound related side effects were observed"},
      {"measurement": "absorption", "setting": "[5]; rats, oral administration", "value": "slowly absorbed"},
      {"measurement": "apparent terminal half-life", "setting": "[5]; rats, oral administration", "value": "consistent with that observed after IV dosing"},
      {"measurement": "time of maximum plasma concentrations", "setting": "[5]; rats, oral administration", "value": 5, "unit": "h post-dose"},
      {"measurement": "stability in rat plasma and whole blood", "setting": "[6]; up to 240 min, 500 ng/mL", "value": "stable"},
      {"measurement": "blood plasma ratio at 500 ng/mL", "setting": "[6]; male, Sprague Dawley, fresh heparinized whole blood, rat blood, read-out: apparent in vitro whole blood to plasma partitioning ratio (B/P)", "value": 1.1},
      {"measurement": "intestinal absorption", "setting": "[7]; mouse (FIG. 4)", "value": "slow"},
      {"measurement": "serum half-life", "setting": "[7]; mouse (FIG. 4)", "value": "prolonged"},
      {"measurement": "systemic exposure", "setting": "[7]; mouse (FIG. 4)", "value": "moderate"},
      {"measurement": "plasma/serum concentration relative to the EC90 / 3×EC90", "setting": "[7]; mouse, 30 mg/kg BID, simulated from single 55 mg/kg oral dose", "value": "exceeds the EC90 for just over ½ the dosing interval; also recorded: not attained"},
      {"measurement": "time to peak serum concentration", "setting": "[7]; mouse, single dose (FIG. 4)", "value": 6, "unit": "h"}
    ]}
  ]
}
